Literature values, collected in patent US6872734B2, “Use of tiagabine for treatment of diabetic neuropathy and migraine” (Abbott Laboratories, priority 2000, dated 2005).

Tested on: GABA uptake
Details: for inhibition of GABA uptake: according to J. Pharm. Exp. Therap., 228 (1984), 109

SMILES	GABA uptake inhibitory properties (acid and salts thereof, cf. U.S. Pat. No. 5,010,090)	inhibition of GABA uptake
Cc1ccsc1C(=CCCN1CCC[C@@H](C(=O)O)C1)c1sccc1C [(R)-N-[4,4-Bis(3-methyl-2-thienyl)-3-butenyl]nipecotic acid]	effective GABA uptake inhibitory compounds	
O=C(O)C1CCCN(CCC=C(c2ccccc2)c2ccccc2)C1 (stereo not shown) [SK&F 89976A, N-(4,4-diphenyl-3 butenyl)nipecotic acid]		active inhibitors of GABA uptake
O=C(O)C1=CCCN(CCC=C(c2ccccc2)c2ccccc2)C1 [SK&F 100330A, N-(4,4-diphenyl-3-butenyl)guvacine]		active inhibitors of GABA uptake
O=C(O)C1CCCN(CCC=C(c2ccccc2)c2cccs2)C1 (stereo not shown) [SK&F 100604J, N-(4-phenyl-4-(2-thienyl)-3-butenyl)nipecotic acid]		active inhibitors of GABA uptake
